Data taken from US20080261286A1, “Methods for producing optically active alpha-hydroxy amides” (Daicel Chemical Industries, Ltd., priority 2004, published 2008).

T1: α-ketoamide reductase (Saccharomyces cerevisiae, UniProt Q07551)
T1 construct: 500 g of live baker's yeast was purchased from Oriental yeast and the fungal cells were used to purify the enzyme; tissue Oriental Yeast; host or cells: live baker's yeast cells; enzyme purified to a single SDS-PAGE band
T1 sequence (Q07551 1-312): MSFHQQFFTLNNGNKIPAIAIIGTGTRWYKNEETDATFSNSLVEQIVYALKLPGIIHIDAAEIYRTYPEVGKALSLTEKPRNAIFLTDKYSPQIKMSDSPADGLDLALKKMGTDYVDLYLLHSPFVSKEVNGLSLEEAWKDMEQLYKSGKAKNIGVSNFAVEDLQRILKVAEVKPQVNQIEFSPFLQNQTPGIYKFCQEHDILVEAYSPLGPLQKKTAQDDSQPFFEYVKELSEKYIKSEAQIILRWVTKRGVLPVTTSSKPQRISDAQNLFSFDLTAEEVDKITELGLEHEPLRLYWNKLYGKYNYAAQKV


Target: T1, α-ketoamide reductase
Test: Substrate specificity of α-ketoamide reductase (relative reducing activity)
Format: biochemical
Settings: activity of reducing 2-chlorobenzoyl formamide taken as 100, substrate concentration 1 mM
Method: (§1) The enzyme is incubated in a reaction solution containing 100 mM potassium phosphate buffer (pH 6.5), 0.2 mM NADPH, and 1 mM 2-chlorobenzoyl formamide at 30° C. Adecrease in NADPH concentration is assessed by the decrease in absorbance at 340 nm. 1 U is defined as the amount of enzyme required to catalyze the decrease of 1 μmol NADPH in one minute.
The enzyme obtained in Example 1 was incubated with any one of various α-ketoamides, α-ketoesters, β-ketoesters, aldehydes, ketones, and others. The reducing activity is represented as a relative activity when the activity of reducing 2-chlorobenzoyl formamide is taken as 100.

Reducing activity (%)	Molecule
0	CC(C)C(=O)C(=O)O
0	COCC(C)=O
50	CCCCCC(=O)C(=O)OCC [drawing 10]
71	NC(=O)C(=O)c1ccc(Cl)cc1
49	CCCCC(=O)C(=O)OCC
59	NC(=O)C(=O)c1ccccc1
32	CCOC(=O)C(=O)c1ccccc1 [drawing 5]
71	CCOC(=O)C(=O)C(C)C [drawing 11]
46	CCCC(=O)C(=O)OCC [drawing 8]

Further lines, the molecule ahead of its results:

Molecule	Reducing activity (%)
CC(=O)COC(C)=O	0
O=C(CCl)c1ccccc1	0
CCOC(=O)C(Cl)C(C)=O (centres unmarked)	0
C=CCC(C(C)=O)C(=O)OCC (centres unmarked)	0
O=C1CCCCC1=O	10
NC(=O)C(=O)c1cccc(Cl)c1	143
O=CC(=O)c1ccccc1	120
CC1(C)COC(=O)C1=O	19
NC(=O)C(=O)c1ccccc1Cl [2-chlorobenzoyl formamide]	100
CCOC(=O)C(C)C(C)=O (centres unmarked)	0
CCOC(=O)C(C)=O [drawing 6]	9
CCOC(=O)CC(=O)CCl	4
CC(=O)c1ccccc1	0
CCOC(=O)C(=O)CC [drawing 7]	33
CCOC(=O)CC(=O)c1ccccc1	0

Target: T1, α-ketoamide reductase
Test: Stereoselectivity of α-ketoamide reductase (optical purity of reduction product)
Format: biochemical
Settings: product of reduction; 0.2 U purified enzyme, 10 μmol substrate, 10 μmol NADPH, pH 7.0, 37° C., 6 hours
Method: 0.2 U of the purified enzyme and each of various α-ketoamides and α-ketoesters (10 μmol each) were incubated in 0.5 ml of 0.1 M potassium phosphate buffer (pH 7.0) in the presence of 10 μmol NADPH at 37° C. for 6 hours. The resulting α-hydroxy amides and α-hydroxyesters were extracted with ether, and then the optical purity of each compound was determined.
The optical purity was determined by the procedure described below.
The optical purity of 2-chloromandelamide was determined by chiral HPLC method or chiral GC method. The chiral HPLC method comprises chromatography using CHIRALPAK AS-H (DAICEL CHEMICAL INDUSTRIES, LTD.). The elution was carried out using a mixed solution of n-hexane and ethanol (85:15) at a flow rate 1.0 mL/min and a column temperature of 25° C. The elution peak for the compound was detected by UV absorbance at 254 nm. Under these conditions, 2-chloromandelamide was eluted 7.5 minutes (R-isomer) and 10.1 minutes (S-isomer) after the start of elution.
The chiral GC method comprises chromatography using GAMMA DEX 225 (SUPELCO; 30 m×0.25 mm×0.25 μm film thickness) under the following conditions: column temperature, 190° C.; injection temperature, 220° C.; detection temperature 220° C.; carrier gas, He/1.0 kg/cm^2. Under the conditions described above, the S-isomer was eluted 27.0 minutes, and the R-isomer was eluted 29.3 minutes after the start of the elution.
The optical purities of the other α-hydroxyesters were determined by the chiral GC method described below using Chirasil-DEX CB column (Varian; […]×0.25 μm film thickness). GAMMA DEX 225 was used to determine the optical purities of ethyl lactate (injection temperature, 180° C.; column temperature, […]; detection temperature, 180° C.; R-isomer, 6.13 minutes; S-isomer, 6.82 minutes), ethyl 2-hydroxybutyrate (injection temperature, 180° C.; column temperature, 100° C.; detection temperature, 180° C.; R-isomer, 5.88 minutes; S-isomer, 6.32 minutes), ethyl 2-hydroxyvalerate (injection temperature, 180° C.; column temperature, 110° C.; detection temperature, 180° C.; R-isomer, 6.17 minutes; S-isomer, 6.88 minutes), ethyl 2-hydroxy heptanoate (injection temperature, 180° C.; column temperature, 120° C.; detection temperature, 180° C.; R-isomer, 11.20 minutes; S-isomer, 12.00 minutes), and 2-hydroxyisovalerate (injection temperature, 180° C.; column temperature, 90° C.; detection temperature, 180° C.; R-isomer, 10.42 minutes; S-isomer, 10.89 minutes).

Optical purity (%)	Molecule
>99	NC(=O)C(=O)c1ccccc1Cl [drawing 25]
>99	CCCCCC(=O)C(=O)OCC [drawing 29]
>99	CCOC(=O)C(=O)C(C)C [drawing 30]
97	CCOC(=O)C(=O)c1ccccc1 [drawing 31]
>99	CCOC(=O)C(C)=O [drawing 26]
98	CCCC(=O)C(=O)OCC [drawing 28]
>99	CCOC(=O)C(=O)CC [drawing 27]

Same assay, conditions: purified enzyme (summary)

purity of (R)-2-chloromandelamide produced [%]	Molecule
≥ 99	NC(=O)C(=O)c1ccccc1Cl [2-chlorobenzoyl formamide]

Test system: not listed separately
Test: 2-chlorobenzoyl formamide-reducing activity of enzyme preparations
Format: biochemical
Settings: purified enzyme; 1 mM 2-chlorobenzoyl formamide, 0.2 mM NADPH, pH 6.5, 30° C.
Method: as §1
Cells of E. coli DH10B strain containing pSE-YDL1 or pSG-YDL1 were grown on LB medium containing ampicillin. Cells were induced with 0.1 mM IPTG for 4 hours, and then the cells were harvested by centrifugation.
Each sample of cells was suspended in cell lysis buffer (50 mM potassium phosphate buffer (pH 8.0) containing 0.02% 2-mercaptoethanol). The cells were crushed by sonication. Then, the lysates were centrifuged and the resulting supernatants were saved as cell-free extracts.

Molecule	specific activity
α-ketoamide reductase: NADPH-dependent α-ketoamide reductase purified from baker's yeast, encoded by YDL124w (SEQ ID NO: 2) (protein, listed as Saccharomyces cerevisiae) MSFHQQFFTLNNGNKIPAIAIIGTGTRWYKNEETDATFSNSLVEQIVYALKLPGIIHIDAAEIYRTYPEVGKALSLTEKPRNAIFLTDKYSPQIKMSDSPADGLDLALKKMGTDYVDLYLLHSPFVSKEVNGLSLEEAWKDMEQLYKSGKAKNIGVSNFAVEDLQRILKVAEVKPQVNQIEFSPFLQNQTPGIYKFCQEHDILVEAYSPLGPLQKKTAQDDSQPFFEYVKELSEKYIKSEAQIILRWVTKRGVLPVTTSSKPQRISDAQNLFSFDLTAEEVDKITELGLEHEPLRLYWNKLYGKYNYAAQKV	about 105 U/mg

Same assay, conditions: purified enzyme; 1 mM 2-chlorobenzoyl formamide, 0.2 mM NADPH, pH 6.5, 30° C.; listed as purified enzyme

Molecule	specific activity [U/mg]
α-ketoamide reductase: NADPH-dependent α-ketoamide reductase purified from baker's yeast, encoded by YDL124w (SEQ ID NO: 2) (protein, listed as Saccharomyces cerevisiae) MSFHQQFFTLNNGNKIPAIAIIGTGTRWYKNEETDATFSNSLVEQIVYALKLPGIIHIDAAEIYRTYPEVGKALSLTEKPRNAIFLTDKYSPQIKMSDSPADGLDLALKKMGTDYVDLYLLHSPFVSKEVNGLSLEEAWKDMEQLYKSGKAKNIGVSNFAVEDLQRILKVAEVKPQVNQIEFSPFLQNQTPGIYKFCQEHDILVEAYSPLGPLQKKTAQDDSQPFFEYVKELSEKYIKSEAQIILRWVTKRGVLPVTTSSKPQRISDAQNLFSFDLTAEEVDKITELGLEHEPLRLYWNKLYGKYNYAAQKV	105

Test system: not listed separately
Test: pH and temperature dependency and stability of α-ketoamide reductase
Format: biochemical
Settings: 100 mM potassium phosphate buffer (pH 7.0), 30 minutes
Method: The pH of the reaction solution was altered using 0.1 M sodium acetate buffer (pH 4.0-5.5), potassiumphosphate buffer (pH 5.5-7.5), Tris-hydrochloride buffer (pH 7.5-9.0), and glycine-potassium hydroxide buffer (pH 9.0-10.5) to assess the pH dependency of the 2-chlorobenzoyl formamide-reducing activity of the enzyme obtained in Example 1. The activity at each pH was determined as a relative activity when the maximal activity was taken as 100. The optimal pH (pH range in which the relative activity is 80% or higher) was 5.5-6.5.
The enzyme obtained in Example 1 was assessed for 2-chlorobenzoyl formamide-reducing activity under standard reaction conditions at various temperatures. The activity at each temperature was determined as a relative activity when the maximal activity was taken as 100. The optimal temperature (temperature range in which the relative activity is 80% or higher) was 35 to 47° C.
The purified enzyme was incubated in 0.1 M sodium acetate buffer (pH 4.0-5.5), 0.1 M potassium phosphate buffer (pH 6.0-7.5), 0.1 M Tris-hydrochloride buffer (pH 8.0-9.0), or 0.1 M glycine-potassium hydroxide buffer (pH 9.5-10.5) at 37° C. for 10 minutes. Then, the enzymatic activity was determined as a relative activity when the activity before the treatment was taken as 100. The stable pH range (pH range in which the residual activity is 80% or higher) was pH 5.5 to 9.5.
The purified enzyme was incubated in 100 mM potassium phosphate buffer (pH 7.0) at 20 to 50° C. for 30 minutes. The temperature range in which the enzyme activity is stable (temperature range in which the residual activity is 80% or higher) falls within the range comprising 40° C. and lower temperatures.

Molecule	temperature range in which the residual activity is 80% or higher [°C]
α-ketoamide reductase: NADPH-dependent α-ketoamide reductase purified from baker's yeast, encoded by YDL124w (SEQ ID NO: 2) (protein, listed as Saccharomyces cerevisiae) MSFHQQFFTLNNGNKIPAIAIIGTGTRWYKNEETDATFSNSLVEQIVYALKLPGIIHIDAAEIYRTYPEVGKALSLTEKPRNAIFLTDKYSPQIKMSDSPADGLDLALKKMGTDYVDLYLLHSPFVSKEVNGLSLEEAWKDMEQLYKSGKAKNIGVSNFAVEDLQRILKVAEVKPQVNQIEFSPFLQNQTPGIYKFCQEHDILVEAYSPLGPLQKKTAQDDSQPFFEYVKELSEKYIKSEAQIILRWVTKRGVLPVTTSSKPQRISDAQNLFSFDLTAEEVDKITELGLEHEPLRLYWNKLYGKYNYAAQKV	≤ 40

Same assay, conditions: 2-chlorobenzoyl formamide-reducing activity

Molecule	optimal pH (pH range in which the relative activity is 80% or higher)
α-ketoamide reductase: NADPH-dependent α-ketoamide reductase purified from baker's yeast, encoded by YDL124w (SEQ ID NO: 2) (protein, listed as Saccharomyces cerevisiae) MSFHQQFFTLNNGNKIPAIAIIGTGTRWYKNEETDATFSNSLVEQIVYALKLPGIIHIDAAEIYRTYPEVGKALSLTEKPRNAIFLTDKYSPQIKMSDSPADGLDLALKKMGTDYVDLYLLHSPFVSKEVNGLSLEEAWKDMEQLYKSGKAKNIGVSNFAVEDLQRILKVAEVKPQVNQIEFSPFLQNQTPGIYKFCQEHDILVEAYSPLGPLQKKTAQDDSQPFFEYVKELSEKYIKSEAQIILRWVTKRGVLPVTTSSKPQRISDAQNLFSFDLTAEEVDKITELGLEHEPLRLYWNKLYGKYNYAAQKV	5.5-6.5

Same assay, conditions: 37° C. for 10 minutes

Molecule	stable pH range (pH range in which the residual activity is 80% or higher)
α-ketoamide reductase: NADPH-dependent α-ketoamide reductase purified from baker's yeast, encoded by YDL124w (SEQ ID NO: 2) (protein, listed as Saccharomyces cerevisiae) MSFHQQFFTLNNGNKIPAIAIIGTGTRWYKNEETDATFSNSLVEQIVYALKLPGIIHIDAAEIYRTYPEVGKALSLTEKPRNAIFLTDKYSPQIKMSDSPADGLDLALKKMGTDYVDLYLLHSPFVSKEVNGLSLEEAWKDMEQLYKSGKAKNIGVSNFAVEDLQRILKVAEVKPQVNQIEFSPFLQNQTPGIYKFCQEHDILVEAYSPLGPLQKKTAQDDSQPFFEYVKELSEKYIKSEAQIILRWVTKRGVLPVTTSSKPQRISDAQNLFSFDLTAEEVDKITELGLEHEPLRLYWNKLYGKYNYAAQKV	5.5 to 9.5

Same assay, conditions: standard reaction conditions

Molecule	optimal temperature (temperature range in which the relative activity is 80% or higher) [°C]
α-ketoamide reductase: NADPH-dependent α-ketoamide reductase purified from baker's yeast, encoded by YDL124w (SEQ ID NO: 2) (protein, listed as Saccharomyces cerevisiae) MSFHQQFFTLNNGNKIPAIAIIGTGTRWYKNEETDATFSNSLVEQIVYALKLPGIIHIDAAEIYRTYPEVGKALSLTEKPRNAIFLTDKYSPQIKMSDSPADGLDLALKKMGTDYVDLYLLHSPFVSKEVNGLSLEEAWKDMEQLYKSGKAKNIGVSNFAVEDLQRILKVAEVKPQVNQIEFSPFLQNQTPGIYKFCQEHDILVEAYSPLGPLQKKTAQDDSQPFFEYVKELSEKYIKSEAQIILRWVTKRGVLPVTTSSKPQRISDAQNLFSFDLTAEEVDKITELGLEHEPLRLYWNKLYGKYNYAAQKV	35 to 47
